Laboratory results as given in patent US11912686B2 (Gilead Sciences, Inc., priority 2020, dated 2024).

Biological target: human LPAR1 (Homo sapiens (Human), UniProt Q92633)
Assay: LPAR1 intracellular calcium mobilization assay (antagonist mode, FLIPR)
Format: cell-based
Conditions: CHO-K1 EDG2 cells expressing human LPAR1, LPA 18:2 at EC80 (100 nM), test compound 0.5 nM to 10 μM

human LPAR1, sequence (Q92633 whole entry): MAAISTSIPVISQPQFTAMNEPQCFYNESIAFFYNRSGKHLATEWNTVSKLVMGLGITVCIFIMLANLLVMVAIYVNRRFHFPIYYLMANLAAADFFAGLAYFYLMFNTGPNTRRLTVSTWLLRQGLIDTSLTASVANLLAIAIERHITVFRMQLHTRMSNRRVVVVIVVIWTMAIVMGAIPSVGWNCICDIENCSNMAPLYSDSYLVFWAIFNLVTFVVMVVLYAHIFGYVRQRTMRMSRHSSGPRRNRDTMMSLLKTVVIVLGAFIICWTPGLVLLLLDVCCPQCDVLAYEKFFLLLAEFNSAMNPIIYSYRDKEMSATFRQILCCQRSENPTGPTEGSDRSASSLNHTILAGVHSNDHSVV

SMILES	EC50
Cc1ncc(F)cc1[C@@H](C)OC(=O)Nc1c(-c2ccc(NC(=O)C34CC(C#N)(C3)C4)cn2)nnn1C [Compound 178, (R)-1-(5-fluoro-2-methylpyridin-3-yl)ethyl (4-(5-(3-cyanobicyclo[1.1.1]pentane-1-carboxamido)pyridin-2-yl)-1-methyl-1H-1,2,3-triazol-5-yl)carbamate]	140 nM
Cc1ncc(F)cc1[C@@H](C)OC(=O)Nc1c(-c2ccc(NC(=O)C34CC(F)(C3)C4)cn2)nnn1C [Compound 179, (R)-1-(5-fluoro-2-methylpyridin-3-yl)ethyl (4-(5-(3-fluorobicyclo[1.1.1]pentane-1-carboxamido)pyridin-2-yl)-1-methyl-1H-1,2,3-triazol-5-yl)carbamate]	46.5 nM
Cc1ncc(F)cc1[C@@H](C)OC(=O)Nc1c(-c2ccc(NC(=O)[C@@H]3CC3(F)F)cn2)nnn1C [Compound 180, (R)-1-(5-fluoro-2-methylpyridin-3-yl)ethyl (4-(5-((S)-2,2-difluorocyclopropane-1-carboxamido)pyridin-2-yl)-1-methyl-1H-1,2,3-triazol-5-yl)carbamate]	123 nM
CC(OC(=O)Nc1c(-c2ccc(NC(=O)C3(C#N)CC3)cn2)nnn1C)c1ccc(F)nc1Cl (stereo not drawn) [Compound 181, 1-(2-chloro-6-fluoropyridin-3-yl)ethyl (4-(5-(1-cyanocyclopropane-1-carboxamido)pyridin-2-yl)-1-methyl-1H-1,2,3-triazol-5-yl)carbamate]	428 nM
CC(=O)Nc1ccc(-c2nnn(C)c2NC(=O)OC(C)c2ccc(F)nc2Cl)nc1 (stereo not drawn) [Compound 182, 1-(2-chloro-6-fluoropyridin-3-yl)ethyl (4-(5-acetamidopyridin-2-yl)-1-methyl-1H-1,2,3-triazol-5-yl)carbamate]	2050 nM
C[C@@H](OC(=O)Nc1c(-c2cc(F)c(NC(=O)C3(C#N)CC3)cn2)nnn1C)c1cccnc1Cl [Compound 183, (R)-1-(2-chloropyridin-3-yl)ethyl (4-(5-(1-cyanocyclopropane-1-carboxamido)-4-fluoropyridin-2-yl)-1-methyl-1H-1,2,3-triazol-5-yl)carbamate]	1060 nM
C[C@@H](OC(=O)Nc1c(-c2cc(F)c(NC(=O)C34CC(C#N)(C3)C4)cn2)nnn1C)c1cccnc1Cl [Compound 184, (R)-1-(2-chloropyridin-3-yl)ethyl (4-(5-(3-cyanobicyclo[1.1.1]pentane-1-carboxamido)-4-fluoropyridin-2-yl)-1-methyl-1H-1,2,3-triazol-5-yl)carbamate]	81.8 nM
C[C@@H](OC(=O)Nc1c(-c2ccc(NC(=O)C3(C#N)CC(F)(F)C3)cn2)nnn1C)c1cccnc1Cl [Compound 186, (R)-1-(2-chloropyridin-3-yl)ethyl (4-(5-(1-cyano-3,3-difluorocyclobutane-1-carboxamido)pyridin-2-yl)-1-methyl-1H-1,2,3-triazol-5-yl)carbamate]	100 nM
CNC(=O)Nc1ccc(-c2nnn(C)c2NC(=O)O[C@H](CF)c2cccc(F)c2)nc1 [Compound 187, (S)-2-fluoro-1-(3-fluorophenyl)ethyl (1-methyl-4-(5-(3-methylureido)pyridin-2-yl)-1H-1,2,3-triazol-5-yl)carbamate]	1240 nM
C[C@@H](OC(=O)Nc1c(-c2ccc(NC(=O)N3CCC3)cn2)nnn1C)c1cccnc1Cl [Compound 188, (R)-1-(2-chloropyridin-3-yl)ethyl (4-(5-(azetidine-1-carboxamido)pyridin-2-yl)-1-methyl-1H-1,2,3-triazol-5-yl)carbamate]	452 nM
C[C@@H]1CCN(C(=O)Nc2ccc(-c3nnn(C)c3NC(=O)O[C@H](C)c3cccnc3Cl)nc2)C1 [Compound 190, (R)-1-(2-chloropyridin-3-yl)ethyl (1-methyl-4-(5-((R)-3-methylpyrrolidine-1-carboxamido)pyridin-2-yl)-1H-1,2,3-triazol-5-yl)carbamate]	359 nM
C[C@@H](OC(=O)Nc1c(-c2ccc(NC(=O)N3CC(C#N)C3)cn2)nnn1C)c1cccnc1Cl [Compound 191, (R)-1-(2-chloropyridin-3-yl)ethyl (4-(5-(3-cyanoazetidine-1-carboxamido)pyridin-2-yl)-1-methyl-1H-1,2,3-triazol-5-yl)carbamate]	620 nM
C[C@@H]1CCCN1C(=O)Nc1ccc(-c2nnn(C)c2NC(=O)O[C@H](C)c2cccnc2Cl)nc1 [Compound 192, (R)-1-(2-chloropyridin-3-yl)ethyl (1-methyl-4-(5-((R)-2-methylpyrrolidine-1-carboxamido)pyridin-2-yl)-1H-1,2,3-triazol-5-yl)carbamate]	10000 nM
C[C@@H](OC(=O)Nc1c(-c2ccc(NC(=O)N3CCC(F)(F)C3)cn2)nnn1C)c1cccnc1Cl [Compound 193, (R)-1-(2-chloropyridin-3-yl)ethyl (4-(5-(3,3-difluoropyrrolidine-1-carboxamido)pyridin-2-yl)-1-methyl-1H-1,2,3-triazol-5-yl)carbamate]	287 nM
C[C@@H](OC(=O)Nc1c(-c2ccc(NC(=O)N3CCCC3)cn2)nnn1C)c1cccnc1Cl [Compound 194, (R)-1-(2-chloropyridin-3-yl)ethyl (1-methyl-4-(5-(pyrrolidine-1-carboxamido)pyridin-2-yl)-1H-1,2,3-triazol-5-yl)carbamate]	832 nM
C[C@@H](OC(=O)Nc1c(-c2ccc(NC(=O)[C@H]3CNC(=O)C3)cn2)nnn1C)c1cccnc1Cl [Compound 195, (R)-1-(2-chloropyridin-3-yl)ethyl (1-methyl-4-(5-((R)-5-oxopyrrolidine-3-carboxamido)pyridin-2-yl)-1H-1,2,3-triazol-5-yl)carbamate]	1540 nM
C[C@@H](OC(=O)Nc1c(-c2ccc(NC(=O)CC3OCCO3)cn2)nnn1C)c1cccnc1Cl [Compound 196, (R)-1-(2-chloropyridin-3-yl)ethyl (4-(5 (2-(1,3-dioxolan-2-yl)acetamido)pyridin-2-yl)-1-methyl-1H-1,2,3-triazol-5-yl)carbamate]	1030 nM
C[C@@H](OC(=O)Nc1c(-c2ccc(NC(=O)[C@@H]3C[C@H]3c3ccccc3)cn2)nnn1C)c1cccnc1Cl [Compound 197, (R)-1-(2-chloropyridin-3-yl)ethyl (1-methyl-4-(5-((1R,2R)-2-phenylcyclopropane-1-carboxamido)pyridin-2-yl)-1H-1,2,3-triazol-5-yl)carbamate]	5.2 nM
C[C@@H](OC(=O)Nc1c(-c2ccc(NC(=O)C3(c4cccnc4)CC(F)(F)C3)cn2)nnn1C)c1cccnc1Cl [Compound 198, (R)-1-(2-chloropyridin-3-yl)ethyl (4-(5-(3,3-difluoro-1-(pyridin-3-yl)cyclobutane-1-carboxamido)pyridin-2-yl)-1-methyl-1H-1,2,3-triazol-5-yl)carbamate]	613 nM
C[C@@H](OC(=O)Nc1c(-c2ccc(NC(=O)C3C(F)(F)C34CC4)cn2)nnn1C)c1cccnc1Cl (stereo partly drawn) [Compound 199, (R)-1-(2-chloropyridin-3-yl)ethyl (4-(5-(2,2-difluorospiro[2.2]pentane-1-carboxamido)pyridin-2-yl)-1-methyl-1H-1,2,3-triazol-5-yl)carbamate]	65.7 nM
C[C@@H](OC(=O)Nc1c(-c2ccc(NC(=O)C3(CO)CC(F)(F)C3)cn2)nnn1C)c1cccnc1Cl [Compound 200, (R)-1-(2-chloropyridin-3-yl)ethyl (4-(5-(3,3-difluoro-1-(hydroxymethyl)cyclobutane-1-carboxamido)pyridin-2-yl)-1-methyl-1H-1,2,3-triazol-5-yl)carbamate]	94 nM
